In PMC8564633, “SMAC/Diablo controls proliferation of cancer cells by regulating phosphatidylethanolamine synthesis” (Molecular Oncology, 2021):
Where two headings read alike, the source gives them in different places. Non-standard residues stand in square brackets, D forms with d. Residues, ends and D or L forms follow the SMILES beside them. Dmt = Cc1cc(O)cc(C)c1C[C@H](N)C(=O)O; Orn = NCCC[C@H](N)C(=O)O

Tested on: A549 cells
Type: cell-based, human
Details: 24 h
Protocol: Cells were seeded in 96‐well cell culture plates (8000/well) and allowed to grow for 48 h. After washing with PBS, cells were fixed with 50% trichloroacetic acid and stained with SRB for 20 min. Excess SRB was removed, and cells were washed with 1% acetic acid. SRB extraction was done using 100 mM Tris‐base, and absorbance at 510 nm was determined using an Infinite M1000 plate reader (Tecan, Männedorf, Switzerland).
Fig. 7 PSD‐interacting peptides bind to PSD, inhibiting its activity, and when cell‐penetrating and mitochondria‐ or nucleus‐targeted, inhibit cell proliferation. […] (B) Inhibition of PSD activity by the 2F3 (●) or 1C11 (○) peptide. PSD activity was measured using the DSB‐3 method. (C‐E) Cell proliferation inhibition following incubation of A549 cells with the indicated mitochondria‐ or nucleus‐targeted peptides for 24 h in a serum‐free medium, and cell proliferation was assayed using the SRB method. Results are the means ± SEM (n = 3). (F) A549 cells were incubated for 90 min with 5 µM of the mitochondria‐ or nucleus‐targeted FITC‐labelled peptides, immunostained with anti‐SMAC antibodies and with DAPI and visualized by confocal microscope for subcellular localization. (a) and (b) present higher magnification, white arrows point to possible nuclear localization of the peptide, and blue arrows to its colocalization with mitochondria marker (n = 3). Scale bars represent 20, 10 µm as indicated.
Table S4. Effects of peptide identified as interacting with PSD or their interaction with SMAC/Diablo is prevented in the presence of PSD on A549 lung cancer cell growth A549 cells were seeded in 96-well plate (7000 cells/well). After 24 h cells were incubated without or with the indicated peptide concentration for 24 h in a serum-free medium. Then, cells were washed with PBS, and analyzed for cell growth using the SRB method. Results are the mean ± SD (n=3). Peptide sequence, its identification manner, based on interacting with PSD or their interaction with SMAC/Diablo is prevented in the presence of PSD are shown. In addition, the peptides are presented with the cell penetrating peptide targeting to the mitochondria or the nucleus. The results are presented as the concentration required for 50% inhibition (IC50).
No Peptide spot and Protein/Function Peptide and Cellular IC50 […]
ALSTSSPIPSVPQSQ transcriptional coactivator 2 Mitochondria (A) […]
AQPQTGSGAS truncated poly Q, transcriptional H-(D-Arg)–Dmt–Orn–Phe- 2F3 >100 Interacting with PSD coactivator for NOTCH proteins, Mitochondria promotes proliferative signaling R-{D-Arg}-RK- 2F3 28.9±5.2 during neurogenesis (Nucleus). Nucleus […]
PNQSSRAFQGTDHS transcriptional coactivator 2 Mitochondria
SDLAFDFLSQQ truncated poly Q, A transcriptional D-Arg–Dmt–Orn–Phe-2I8 66.8±4.7 Identified by PSD coactivator for NOTCH proteins, Mitochondria preventing SMAC promotes proliferative signaling R-{D-Arg}-RK-2I8 >100 interaction with it during neurogenesis (Nucleus). Nucleus […]
ALLTSGTSDPRARV protease promotes cell death either Mitochondria […]
TYGTPSLWARL by direct binding to IAPs proteins D-Arg–Dmt–Orn–Phe -1C11 89.3±5.49 Interacting with PSD leading to increased caspase Mitochondria activity or caspase-independent and serine protease activity-dependent R-{D-Arg}-RK- 1C11 66.5±3.9 mechanism. (Mitochondrion Nucleus intermembrane space). 1C11- R-{D-Arg}-RK 30.0±3.8 […]
ELYRMSTYSTFPAG Acts as an E3 ubiquitin-protein Mitochondria
VPVSERSLARA ligase, regulator of NF-kappa-B 1E14- D-Arg–Dmt–Orn–Phe >100 Identified by PSD signaling, apoptosis, cell Mitochondria preventing SMAC proliferation, cell invasion and R-{D-Arg}-RK-1E14 >100 interaction with it metastasis, modulates inflammatory Nucleus signaling, (Cytosol, nucleus and […]

IC50	IC50 (A549 cells, serum‐free medium, SRB, read-out: IC50, cell proliferation inhibition)	Compound
30.3 ± 5.5 µM		Cc1cc(O)cc(C)c1C[C@H](NC(=O)[C@@H](CCCNC(=N)N)NC(=O)[C@H](CC(C)C)NC(=O)[C@H](CCCNC(=N)N)NC(=O)[C@H](C)NC(=O)[C@H](Cc1c[nH]c2ccccc12)NC(=O)[C@H](CC(C)C)NC(=O)[C@H](CO)NC(=O)[C@@H]1CCCN1C(=O)[C@@H](NC(=O)CNC(=O)[C@H](Cc1ccc(O)cc1)NC(=O)[C@@H](NC(=O)[C@@H](NC(=O)[C@H](CCCNC(=N)N)NC(=O)[C@H](C)NC(=O)[C@H](CCCNC(=N)N)NC(=O)[C@@H]1CCCN1C(=O)[C@H](CC(=O)O)NC(=O)[C@H](CO)NC(=O)[C@@H](NC(=O)CNC(=O)[C@H](CO)NC(=O)[C@@H](NC(=O)[C@H](CC(C)C)NC(=O)[C@H](CC(C)C)NC(=O)[C@H](C)N)[C@@H](C)O)[C@@H](C)O)C(C)C)[C@@H](C)O)[C@@H](C)O)C(=O)N[C@@H](CCCN)C(=O)N[C@@H](Cc1ccccc1)C(N)=O [1C11-D-Arg–Dmt–Orn–Phe] (H-ALLTSGTSDPRARVTYGTPSLWARL[dR][Dmt][Orn]F-NH2; N-terminus and C-terminus assumed)
> 100 µM		CSCC[C@H](NC(=O)[C@H](CCCNC(=N)N)NC(=O)[C@H](Cc1ccc(O)cc1)NC(=O)[C@H](CC(C)C)NC(=O)[C@@H](N)CCC(=O)O)C(=O)N[C@@H](CO)C(=O)N[C@H](C(=O)N[C@@H](Cc1ccc(O)cc1)C(=O)N[C@@H](CO)C(=O)N[C@H](C(=O)N[C@@H](Cc1ccccc1)C(=O)N1CCC[C@H]1C(=O)N[C@@H](C)C(=O)NCC(=O)N[C@H](C(=O)N1CCC[C@H]1C(=O)N[C@H](C(=O)N[C@@H](CO)C(=O)N[C@@H](CCC(=O)O)C(=O)N[C@@H](CCCNC(=N)N)C(=O)N[C@@H](CO)C(=O)N[C@@H](CC(C)C)C(=O)N[C@@H](C)C(=O)N[C@@H](CCCNC(=N)N)C(=O)N[C@@H](C)C(=O)N[C@H](CCCNC(=N)N)C(=O)N[C@@H](Cc1c(C)cc(O)cc1C)C(=O)N[C@@H](CCCN)C(=O)N[C@@H](Cc1ccccc1)C(N)=O)C(C)C)C(C)C)[C@@H](C)O)[C@@H](C)O [1E14-D-Arg–Dmt–Orn–Phe] (H-ELYRMSTYSTFPAGVPVSERSLARA[dR][Dmt][Orn]F-NH2; N-terminus and C-terminus assumed)
30.2 ± 3.6 µM		Cc1cc(O)cc(C)c1C[C@H](NC(=O)[C@@H](CCCNC(=N)N)NC(=O)[C@H](CCC(N)=O)NC(=O)[C@H](CCC(N)=O)NC(=O)[C@H](CO)NC(=O)[C@H](CC(C)C)NC(=O)[C@H](Cc1ccccc1)NC(=O)[C@H](CC(=O)O)NC(=O)[C@H](Cc1ccccc1)NC(=O)[C@H](C)NC(=O)[C@H](CC(C)C)NC(=O)[C@H](CC(=O)O)NC(=O)[C@H](CO)NC(=O)[C@H](CO)NC(=O)[C@H](Cc1c[nH]cn1)NC(=O)[C@H](CC(=O)O)NC(=O)[C@@H](NC(=O)CNC(=O)[C@H](CCC(N)=O)NC(=O)[C@H](Cc1ccccc1)NC(=O)[C@H](C)NC(=O)[C@H](CCCNC(=N)N)NC(=O)[C@H](CO)NC(=O)[C@H](CO)NC(=O)[C@H](CCC(N)=O)NC(=O)[C@H](CC(N)=O)NC(=O)[C@@H]1CCCN1)[C@@H](C)O)C(=O)N[C@@H](CCCN)C(=O)N[C@@H](Cc1ccccc1)C(N)=O [2I8- (D-Arg)-Dmt-Orn-Phe-NH2] (H-PNQSSRAFQGTDHSSDLAFDFLSQQ[dR][Dmt][Orn]F-NH2; N-terminus assumed)
> 100 µM		CC(C)C[C@H](NC(=O)[C@H](CC(=O)O)NC(=O)[C@H](CO)NC(=O)[C@H](CO)NC(=O)[C@H](Cc1c[nH]cn1)NC(=O)[C@H](CC(=O)O)NC(=O)[C@@H](NC(=O)CNC(=O)[C@H](CCC(N)=O)NC(=O)[C@H](Cc1ccccc1)NC(=O)[C@H](C)NC(=O)[C@H](CCCNC(=N)N)NC(=O)[C@H](CO)NC(=O)[C@H](CO)NC(=O)[C@H](CCC(N)=O)NC(=O)[C@H](CC(N)=O)NC(=O)[C@@H]1CCCN1C(=O)[C@H](CCCCN)NC(=O)[C@H](CCCNC(=N)N)NC(=O)[C@@H](CCCNC(=N)N)NC(=O)[C@@H](N)CCCNC(=N)N)[C@@H](C)O)C(=O)N[C@@H](C)C(=O)N[C@@H](Cc1ccccc1)C(=O)N[C@@H](CC(=O)O)C(=O)N[C@@H](Cc1ccccc1)C(=O)N[C@@H](CC(C)C)C(=O)N[C@@H](CO)C(=O)N[C@@H](CCC(N)=O)C(=O)N[C@@H](CCC(N)=O)C(=O)O [R-{D-Arg}-RK-2I8] (H-R[dR]RKPNQSSRAFQGTDHSSDLAFDFLSQQ-OH; N-terminus and C-terminus assumed)
30 µM		CC(C)C[C@H](NC(=O)[C@H](C)N)C(=O)N[C@@H](CC(C)C)C(=O)N[C@H](C(=O)N[C@@H](CO)C(=O)NCC(=O)N[C@H](C(=O)N[C@@H](CO)C(=O)N[C@@H](CC(=O)O)C(=O)N1CCC[C@H]1C(=O)N[C@@H](CCCNC(=N)N)C(=O)N[C@@H](C)C(=O)N[C@@H](CCCNC(=N)N)C(=O)N[C@H](C(=O)N[C@H](C(=O)N[C@@H](Cc1ccc(O)cc1)C(=O)NCC(=O)N[C@H](C(=O)N1CCC[C@H]1C(=O)N[C@@H](CO)C(=O)N[C@@H](CC(C)C)C(=O)N[C@@H](Cc1c[nH]c2ccccc12)C(=O)N[C@@H](C)C(=O)N[C@@H](CCCNC(=N)N)C(=O)N[C@@H](CC(C)C)C(=O)N[C@@H](CCCNC(=N)N)C(=O)N[C@H](CCCNC(=N)N)C(=O)N[C@@H](CCCNC(=N)N)C(=O)N[C@@H](CCCCN)C(=O)O)[C@@H](C)O)[C@@H](C)O)C(C)C)[C@@H](C)O)[C@@H](C)O [1C11-R-{D-Arg}-RK] (H-ALLTSGTSDPRARVTYGTPSLWARLR[dR]RK-OH; N-terminus and C-terminus assumed)
19.7 µM		CC(C)C[C@H](NC(=O)[C@H](CC(=O)O)NC(=O)[C@H](CO)NC(=O)[C@H](CO)NC(=O)[C@H](Cc1c[nH]cn1)NC(=O)[C@H](CC(=O)O)NC(=O)[C@@H](NC(=O)CNC(=O)[C@H](CCC(N)=O)NC(=O)[C@H](Cc1ccccc1)NC(=O)[C@H](C)NC(=O)[C@H](CCCNC(=N)N)NC(=O)[C@H](CO)NC(=O)[C@H](CO)NC(=O)[C@H](CCC(N)=O)NC(=O)[C@H](CC(N)=O)NC(=O)[C@@H]1CCCN1)[C@@H](C)O)C(=O)N[C@@H](C)C(=O)N[C@@H](Cc1ccccc1)C(=O)N[C@@H](CC(=O)O)C(=O)N[C@@H](Cc1ccccc1)C(=O)N[C@@H](CC(C)C)C(=O)N[C@@H](CO)C(=O)N[C@@H](CCC(N)=O)C(=O)N[C@@H](CCC(N)=O)C(=O)N[C@@H](CCCNC(=N)N)C(=O)N[C@H](CCCNC(=N)N)C(=O)N[C@@H](CCCNC(=N)N)C(=O)N[C@@H](CCCCN)C(=O)O [2I8-R-{D-Arg}-RK] (H-PNQSSRAFQGTDHSSDLAFDFLSQQR[dR]RK-OH; N-terminus and C-terminus assumed)
29.6 ± 0.6 µM	19.6 µM	CC[C@H](C)[C@H](NC(=O)[C@@H]1CCCN1C(=O)[C@H](CO)NC(=O)[C@H](CO)NC(=O)[C@@H](NC(=O)[C@H](CO)NC(=O)[C@H](CC(C)C)NC(=O)[C@H](C)N)[C@@H](C)O)C(=O)N1CCC[C@H]1C(=O)N[C@@H](CO)C(=O)N[C@H](C(=O)N1CCC[C@H]1C(=O)N[C@@H](CCC(N)=O)C(=O)N[C@@H](CO)C(=O)N[C@@H](CCC(N)=O)C(=O)N[C@@H](C)C(=O)N[C@@H](CCC(N)=O)C(=O)N1CCC[C@H]1C(=O)N[C@@H](CCC(N)=O)C(=O)N[C@H](C(=O)NCC(=O)N[C@@H](CO)C(=O)NCC(=O)N[C@@H](C)C(=O)N[C@@H](CO)C(=O)N[C@@H](CCCNC(=N)N)C(=O)N[C@H](CCCNC(=N)N)C(=O)N[C@@H](CCCNC(=N)N)C(=O)N[C@@H](CCCCN)C(=O)O)[C@@H](C)O)C(C)C [2F3-R-{D-Arg}-RK] (H-ALSTSSPIPSVPQSQAQPQTGSGASR[dR]RK-OH; N-terminus and C-terminus assumed)
